Entries after “also recorded” stand apart in the source; their conditions may differ. Like-named read-outs stand apart in the source and are kept apart here.
Legend:
[1] = test system: G401 SNF mutant cell line; test: Soft agar growth, 7 days; type: cell-based; conditions: after 7 days
Text: FIGS. 3A-3D are a series of bar graphs showing that G401 SNF mutant cell line is responding to Compound D after 7 days in soft agar compared to wild type cells RD.

[2] = test system: SNF5 mutant cell lines A204, G401 and G402; test: Response of SNF5 mutant versus wild type cell lines; type: cell-based
[3] = test system: LNCAP prostate cancer cells; test: LNCAP cell growth inhibition in vitro; type: cell-based
[4] = test system: ATRX mutant SCLC lines NCI-H446, SW1271 and NCI-H841; test: Response of ATRX mutant SCLC lines; type: cell-based
Text: FIGS. 8A-8C are three graphs establishing that ATRX mutant SCLC lines NCI-H446 (FIG. 8A), SW1271 (FIG. 8B) and NCI-H841 (FIG. 8C) are responding to Compound D.

SCLC line NCI-H841 = test: Morphology of SCLC line by microscopy; type: cell-based; conditions: 4.1E-02 uM or 3.3 uM
BT-16 ATRT cell line = test: Surviving fraction after 2Gy radiation; type: cell-based
Text: FIG. 25A is a pair of graphs showing a surviving fraction of untreated or DZNEP-treated ATRT cells (from a BT-16 ATRT cell line) exposed to 2Gy radiation.

[5] = test system: atypical teratoid rhabdoid tumors (ATRTs); test: ATRT cell self-renewal; type: cell-based; conditions: up to 7 or 10 days post-treatment
Text: FIG. 24A is a series of photographs showing control or EZH2 inhibitor-treated (DNZep-treated) atypical teratoid rhabdoid tumors (ATRTs) at 1, 3, 5, and 7 days post-treatment.
FIG. 24D is a series of photographs showing control or EZH2 inhibitor-treated (DNZep-treated) atypical teratoid rhabdoid tumors (ATRTs) at 3, 5, 8 and 10 days post-treatment.

UPN737 ATRT cell line = test: Surviving fraction after 2Gy radiation; type: cell-based
Text: FIG. 25B is a pair of graphs showing a surviving fraction of untreated or DZNEP-treated ATRT cells (from a UPN737 ATRT cell line, “737”) exposed to 2Gy radiation.

Medulloblastoma cells = test: Medulloblastoma cell growth, total cells per milliliter counted; type: cell-based; conditions: versus DMSO control, counted each day for 10 days; tazemetostat 0.5, 2 and 6 μM
Text: The total cells per milliliter of culture were counted each day for 10 days.

ATRT = ATRT in vivo, percent survival
SMARCB1 regulated genes = test: Gene expression by qPCR and cell morphology; type: cell-based; conditions: 1 μM; 2, 4 and 7 days (G401, RD); 14 days (G402)
Description: (FIG. 14A) Basal expression of SMARCB1 regulated genes in G401 SMARCB1-deleted cells, relative to RD control cells (measured by qPCR, n=2). (FIGS. 14B-14L) G401 and RD cells were incubated with either DMSO or 1 μM Compound A for 2, 4 and 7 days. Gene expression was determined by qPCR (n=2) and is expressed relative to the DMSO control of each time point. FIGS. 14B-14K correspond to genes GLI1, PTCh1, DOCK4, CD133, PTPRK, BIN1, CDKN1A, CDKN2A, EZH2, and MYC, respectively. (FIG. 14L) G402 cells were incubated with either DMSO (left panel) or 1 μM Compound A (right panel) for 14 days. Cells were split and re-plated to the original seeding density on day 7.

[6] = Oral bioavailability (general statement); conditions: in vivo
cellular H3K27Me3 = test: Cellular histone methylation in G401 and RD cells; type: cell-based
Description: FIGS. 10A-10C are a series of graphs showing effects of Compound A on cellular global histone methylation and cell viability.
(FIG. 12A) Cell lysates were analyzed by immunoblot with antibodies specific to SMARCB1, EZH2 and Actin (loading control). […] Cells were incubated with Compound A for 4 days, and acid-extracted histones were analyzed by immunoblot.

[7] = test system: G401 xenografts (malignant rhabdoid tumor model); test: G401 xenograft tumor regression; type: in vivo, SCID mice; conditions: twice daily (BID) administration at the indicated doses; listed as Compound A
Description: Data represent the mean values±SEM (n=8). Compound administration was stopped on day 28. (FIG. 5C) EZH2 target inhibition in G401 xenograft tumor tissue collected from a parallel cohort of mice on day 21. […] Horizontal lines represent group mean values. BLLQ=below lower limit of quantification. (FIG. 5D, FIG. 5E) Immunohistochemical staining of tumor histone methylation of tumor samples from the vehicle treated (FIG. 5D) and Compound A treated (FIG. 5E) (at 125 mg/kg) mice.
Data are presented as mean values±SEM (n=16 until day 21, n=8 from day 22 to 60). […] (FIG. 15C) Tumor weights of 8 mice euthanized on day 21. ****p<0.0001, Fisher's exact test. (FIG. 15D) Plasma was collected 5 min before and 3 h after dosing of Compound A on day 21, and compound levels were measured by LC-MS/MS. Animals were euthanized, and tumors were collected 3 h after dosing on day 21. Tumor homogenates were generated and subjected to LC-MS/MS analysis to determine Compound A concentrations. Note that tumor compound levels could not be determined from all animals especially in the higher dose groups because the xenografts were too small on day 21. Dots represent values for the individual animals; horizontal lines represent group mean values.
Compound administration was stopped on day 28 and tumors were allowed to re-grow until they reached 2000 mm^3 (data shown as mean values±SEM, n=8). […]

[8] = test system: SMARCB1-deleted MRT cells (G401); test: Cell cycle analysis (flow cytometry) and apoptosis (TUNEL assay); type: cell-based; conditions: 1 μM, up to 14 days
Description: Cell cycle analysis (by flow cytometry) and determination of apoptosis (by TUNEL assay) in RD (FIG. 13A) or G401 cells (FIG. 13B) during incubation with either vehicle or 1 μM Compound A for up to 14 days. […] Data are represented as mean values±SEM (n=2). The DMSO control values shown are the average±SEM from each time point. Cells were split and re-plated on days 4, 7 and 11 at the original seeding density.

[9] = test system: G401 SNF5 mutant cell line; test: CellTiter-Glo Luminescent Cell Viability Assay after 7 day pretreatment; type: cell-based; conditions: pretreated for 7 days, replated on day 0
Description: FIGS. 4A-4D are four graphs showing that G401 SNF5 mutant cell line is sensitive to Compound A in vitro. Wild type cell line SJCRH30 (FIG. 4A) and RD (FIG. 4C) and SNF5 mutant cell line G401 (FIG. 4B) and A204 (FIG. 4D) were pretreated for 7 days with indicated concentrations of Compound A and replated on day 0. Cell viability was determined by CellTiter-Glo® Luminescent Cell Viability Assay.

[10] = Phase 1 clinical trial, observed steady-state PK in adults; conditions: for CL/F Observed: adults, steady-state; for AUC(0-t) / Cmax: human, in vivo, po
[11] = PBPK model (Gastroplus) prediction of adult steady-state PK; conditions: adults, 100-1600 mg BID
[12] = test system: primary medulloblastoma cells; conditions: for primary medulloblastoma cell growth ex vivo: slice culture treated for 4 days
Description: A slice culture of medulloblastoma was freshly isolated from a subject.
A patient having medulloblastoma underwent surgery to remove a slice of tumor tissue for testing. The medulloblastoma slice was cultured ex vivo on tissue supporting inserts (FIG. 28A). […] Following the treatment period, the cells of the slice culture were treated with BrdU for 4 hours prior to disaggregation and sorting by flow cytometry.

[13] = 500 nM or 2 μM for 4 days, versus untreated control

CCN(c1cc(-c2ccc(CN3CCOCC3)cc2)cc(C(=O)NCc2c(C)cc(C)[nH]c2=O)c1C)[C@H]1CC[C@H](N(C)C)CC1 [Compound D]
response in soft agar compared to wild type cells RD [1]: responding
response of SNF5 mutant cell lines compared to wild type cell lines RD and SJCRH30 [2]: selectively respond
cell growth inhibition [3]: dose-dependent cell growth inhibition
response of ATRX mutant SCLC lines [4]: responding
cell morphology (SCLC line NCI-H841): changes morphology

Nc1nccc2c1ncn2C1C=C(CO)C(O)C1O (centres unmarked) [DNZep]
radio-sensitization (surviving fraction) (BT-16 ATRT cell line): radio-sensitizes ATRT
ATRT cell self-renewal [5]: suppresses ATRT cell self-renewal
radio-sensitization (surviving fraction) (UPN737 ATRT cell line): radio-sensitizes ATRT

CC[C@H](C)n1cc(C)c2c(C(=O)NCc3c(C)cc(C)[nH]c3=O)cc(-c3ccc(N4CCNCC4)nc3)cc21 [GSK-126, reference compound]
medulloblastoma cell growth (total cells per milliliter) (Medulloblastoma cells): decrease medulloblastoma cell growth

CCCc1cc(C)[nH]c(=O)c1CNC(=O)c1cc(-c2ccc(N3CCN(C(C)C)CC3)nc2)cc2c1cnn2C(C)C [UNC 1999, reference compound]
medulloblastoma cell growth (total cells per milliliter) (Medulloblastoma cells): decrease medulloblastoma cell growth

CCN(c1cc(-c2ccc(CN3CCOCC3)cc2)cc(C(=O)NCc2c(C)cc(C)[nH]c2=O)c1C)C1CCOCC1 [tazemetostat]
ATRT in vivo (percent survival versus vehicle) (ATRT): decreases ATRT in vivo
medulloblastoma cell growth (total cells per milliliter) (Medulloblastoma cells): significant decrease; also recorded: decrease medulloblastoma cell growth
expression of SMARCB1 regulated genes and cell morphology (SMARCB1 regulated genes): induces changes in expression of SMARCB1 regulated genes and cell morphology
oral bioavailability [6]: orally bioavailable
cellular H3K27Me3 levels (cellular H3K27Me3): Concentration-dependent inhibition
specificity for inhibition of cellular histone methylation (cellular H3K27Me3; 4 days, immunoblot): Selective inhibition of cellular H3K27 methylation
tumor response in G401 xenografts [7]: durable regressions; also recorded: Tumor regressions; also recorded: eradicates SMARCB1-deleted MRT xenografts
G1 arrest [8]: G1 arrest was observed as of day 7
apoptosis ([8]; TUNEL): apoptosis was induced as of day 11
sensitivity of cell viability in vitro [9]: sensitive
CL/F Observed ([10]; 100 mg BID p.o. (n = 6)): 309 L/h
CL/F Observed ([10]; 200 mg BID p.o. (n = 3)): 198 L/h
CL/F Observed ([10]; 400 mg BID p.o. (n = 3)): 264 L/h
CL/F Observed ([10]; 800 mg BID p.o. (n = 6)): 152 L/h
CL/F Observed ([10]; 1600 mg BID p.o. (n = 6)): 180 L/h
AUC(0-t) ([10]; 100 mg): 348 ng·h/mL
Cmax ([10]; 100 mg): 99 ng/mL
AUC(0-t) ([10]; 200 mg): 1010 ng·h/mL
Cmax ([10]; 200 mg): 237 ng/mL
AUC(0-t) ([10]; 400 mg): 1510 ng·h/mL
Cmax ([10]; 400 mg): 313 ng/mL
AUC(0-t) ([10]; 800 mg): 4630 ng·h/mL
Cmax ([10]; 800 mg): 818 ng/mL
AUC(0-t) ([10]; 1600 mg): 7880 ng·h/mL
Cmax ([10]; 1600 mg): 1480 ng/mL
deviation of predicted mean steady-state AUC0-t from observed [11]: ≤ 30%
deviation of predicted oral clearance (CL/F) from observed [11]: ≤ 30%
proportion of cells in G0/G1 stage [12, 13]: increased proportion
proportion of cells in G2/M stage [12, 13]: decreased proportion
primary medulloblastoma cell growth ex vivo [12]: inhibits proliferation/growth of medulloblastoma cells
primary medulloblastoma cell growth ex vivo ([12]; listed as Tazemetostat): decreases primary medulloblastoma cell growth ex vivo

From patent US20210008075A1, “PEDIATRIC DOSING FOR TREATMENT OF CANCER WITH AN EZH2 INHIBITOR” (Epizyme, Inc., priority 2015, published 2021)
